Assay results taken from the supplement of paper PMC13380429.

Columns and labels:
Conditions in all cases: 72 h
U2OS [1] = assay: drug sensitivity score (DSS) for viability; higher = more toxic; extreme values may be limits of the assay
Vero E6 [2] = assay: as above
Calu-3 [3] = assay: as above
Caco-2 [4] = assay: as above
HepG2 [5] = assay: as above
Calu-3 [6] = assay: relative viability EC50 (midpoint between 100% and the lowest measured viability); higher = less toxic
HepG2 [7] = assay: as above
U2OS [8] = assay: cell viability relative to DMSO; higher = less toxic
Vero E6 [9] = assay: as above
Calu-3 [10] = assay: as above
Caco-2 [11] = assay: as above
HepG2 [12] = assay: as above
U2OS [13] = assay: relative viability EC50 (midpoint between 100% and the lowest measured viability); higher = less toxic
Caco-2 [14] = assay: as above

Row | Compound | drug sensitivity score (U2OS [1]) | drug sensitivity score (Vero E6 [2]) | drug sensitivity score (Calu-3 [3]) | drug sensitivity score (Caco-2 [4]) | drug sensitivity score (HepG2 [5]) | relative viability EC50 (Calu-3 [6]) | relative viability EC50 (HepG2 [7]) | cell viability (U2OS [8]; 1 nM) | cell viability (U2OS [8]; 10 nM) | cell viability (U2OS [8]; 100 nM) | cell viability (U2OS [8]; 1000 nM) | cell viability (U2OS [8]; 10000 nM) | cell viability (Vero E6 [9]; 1 nM) | cell viability (Vero E6 [9]; 10 nM) | cell viability (Vero E6 [9]; 100 nM) | cell viability (Vero E6 [9]; 1000 nM) | cell viability (Vero E6 [9]; 10000 nM) | cell viability (Calu-3 [10]; 1 nM) | cell viability (Calu-3 [10]; 10 nM) | cell viability (Calu-3 [10]; 100 nM) | cell viability (Calu-3 [10]; 1000 nM) | cell viability (Calu-3 [10]; 10000 nM) | cell viability (Caco-2 [11]; 1 nM) | cell viability (Caco-2 [11]; 10 nM) | cell viability (Caco-2 [11]; 100 nM) | cell viability (Caco-2 [11]; 1000 nM) | cell viability (Caco-2 [11]; 10000 nM) | cell viability (HepG2 [12]; 1 nM) | cell viability (HepG2 [12]; 10 nM) | cell viability (HepG2 [12]; 100 nM) | cell viability (HepG2 [12]; 1000 nM) | cell viability (HepG2 [12]; 10000 nM) | relative viability EC50 (U2OS [13]) | relative viability EC50 (Caco-2 [14])
1 | Cc1cc(N2CCOCC2)ccc1Nc1nc(NC2CCCCC2)c2nc[nH]c2n1 | 6.1 | 7.4 | 0.4 | 2.9 | 9.1 | > 10 µM | 0.455 µM | 97% | 104% | 101% | 68% | 55.4% | 96.9% | 99.6% | 98.2% | 60.1% | 60.8% | 100% | 98% | 98.6% | 98.4% | 85% | 102% | 104% | 101% | 88.5% | 69.4% | 99.1% | 107% | 98% | 51.8% | 43.5% |  | 
2 | Cc1cccc(NC(=O)CN2CCC(c3ccccn3)CC2)c1 | 0 |  | 0 | 0 | 0 | > 10 µM | > 10 µM | 98.9% | 97.9% | 94.7% | 98.1% | 93.9% |  |  |  |  |  | 110% | 101% | 109% | 108% | 98.1% | 98.7% | 101% | 95% | 91.3% | 93.9% | 108% | 103% | 97% | 102% | 101% | > 10 µM | > 10 µM
3 | Cn1cc(-c2ccncc2)c(-c2ccc(OCc3ccc4ccccc4n3)cc2)n1 | 0 |  | 0.9 | 1.2 | 0 | > 10 µM | > 10 µM | 94% | 101% | 96.7% | 94.6% | 87.5% |  |  |  |  |  | 104% | 105% | 103% | 98.9% | 77.1% | 91.1% | 106% | 90.5% | 106% | 67.2% | 105% | 99.2% | 108% | 95.6% | 91.5% | > 10 µM | 
4 | NC(=O)[C@@H](CC1CC1)[C@@H](CCC(F)(F)F)C(=O)N[C@H]1N=C(c2ccccc2)c2cccc(F)c2NC1=O | 0 |  | 0 | 0.4 | 0 | > 10 µM | > 10 µM | 99% | 96.4% | 94.1% | 94.1% | 92.7% |  |  |  |  |  | 110% | 99.4% | 91.9% | 85.8% | 99.1% | 97.7% | 98.4% | 96.5% | 96.2% | 85.2% | 94.3% | 106% | 105% | 91.9% | 106% | > 10 µM | > 10 µM
5 | N#C/C(=C\c1ccc(O)c(O)c1)C(=O)NCCCCc1ccccc1 [AG-556] | 1 | 2.5 | 0 | 2.5 | 0.9 | > 10 µM |  | 98.5% | 99% | 94.7% | 99% | 75.8% | 95.8% | 95.6% | 100% | 95.9% | 62.5% | 95.7% | 101% | 102% | 110% | 98.7% | 94% | 94.2% | 101% | 101% | 50.1% | 93.3% | 101% | 97.8% | 108% | 71.1% | > 10 µM | 
6 | CC(C)(C)C1CCc2c(sc(NC(=O)c3ccco3)c2C(=O)O)C1 (stereo not given) [CaCCinh-A01] | 0 | 1.3 | 0 | 0.7 | 3 | > 10 µM |  | 98.8% | 101% | 96.2% | 97.1% | 98% | 98.8% | 98.8% | 106% | 98.5% | 72.9% | 91.2% | 99.5% | 103% | 96.4% | 99.6% | 102% | 103% | 97.1% | 97.8% | 82.2% | 115% | 90.8% | 103% | 87.2% | 69.3% | > 10 µM | > 10 µM
7 | CC(C)(O)c1coc(S(=O)(=O)NC(=O)Nc2c3c(cc4c2CCC4)CCC3)c1 [MCC950] | 0 |  | 0 | 0 | 0 | > 10 µM | > 10 µM | 104% | 103% | 105% | 97.7% | 102% |  |  |  |  |  | 120% | 105% | 100% | 103% | 99.3% | 106% | 96.1% | 102% | 96.9% | 104% | 97.9% | 95.9% | 102% | 113% | 105% | > 10 µM | > 10 µM
8 | Nc1ncnc2c1c(-c1cccc(OCc3ccccc3)c1)cn2[C@H]1C[C@@H](CN2CCC2)C1 [NVP-AEW541] | 4.5 | 2.4 | 3.3 | 5.2 | 7.4 |  | 1 µM | 98.1% | 97.9% | 106% | 86.6% | 52.5% | 100% | 102% | 99% | 92.9% | 69.6% | 112% | 103% | 99.4% | 93.3% | 57.2% | 99.8% | 97% | 94.5% | 80.8% | 45.1% | 96.4% | 93.6% | 92.4% | 68.1% | 32.3% |  | 1.4 µM
9 | CC(C)(C(=O)NCC(F)(F)C(F)(F)F)C(=O)N[C@@H]1C(=O)Nc2ccccc2-c2ccccc21 [RG4733] | 0 |  | 0 | 0.6 | 0 | > 10 µM | > 10 µM | 96.9% | 99.1% | 99.6% | 94.4% | 97.3% |  |  |  |  |  | 102% | 108% | 112% | 98.6% | 93.9% | 94.4% | 92.3% | 97.8% | 89.8% | 82.2% | 102% | 111% | 101% | 102% | 92.1% | > 10 µM | > 10 µM
10 | COc1ccncc1C(=O)NC(=O)Nc1ccc(-c2ccccc2)c(C(F)(F)F)c1 [S1P1-agonist-III] | 0 |  | 0 | 0 | 0 | > 10 µM | > 10 µM | 106% | 107% | 101% | 98.4% | 98.2% |  |  |  |  |  | 110% | 97.5% | 93.2% | 99.2% | 91.1% | 100% | 90.6% | 95.5% | 99.1% | 87.8% | 95.3% | 104% | 95.5% | 107% | 97.1% | > 10 µM | > 10 µM
11 | O=C(NCC(=O)N1CCCC1)Nc1ccc2cnccc2c1 [SGC-707] | 0 |  | 0 | 0 | 0 | > 10 µM | > 10 µM | 99.2% | 93% | 103% | 97.3% | 96.8% |  |  |  |  |  | 94.2% | 95.8% | 105% | 86.2% | 110% | 98.1% | 97% | 95.7% | 100% | 93.1% | 93.6% | 117% | 98.4% | 103% | 97.3% | > 10 µM | > 10 µM
12 | O=C(O)COc1ccc(/C=C2\SC(=O)NC2=O)cc1 [TCS-3035] | 0 |  | 0 | 0 | 0 | > 10 µM | > 10 µM | 102% | 94.9% | 97.8% | 99.8% | 100% |  |  |  |  |  | 101% | 97.6% | 97.3% | 103% | 106% | 105% | 107% | 97.3% | 104% | 102% | 103% | 104% | 103% | 105% | 95.3% | > 10 µM | > 10 µM
13 | NS(=O)(=O)c1ccc(NC(=O)Nc2ccc(F)cc2)cc1 [U-104] |  |  | 0 | 0 | 0 | > 10 µM | > 10 µM |  |  |  |  |  |  |  |  |  |  | 112% | 91.7% | 107% | 101% | 108% | 99.4% | 94.4% | 96.9% | 105% | 101% | 102% | 106% | 103% | 89.8% | 104% |  | > 10 µM
14 | CC(=O)N[C@@H](CC(C)C)C(=O)O [acetyl-l-leucine] | 0 |  |  | 4.1 | 0 |  | > 10 µM | 101% | 99.9% | 95.2% | 101% | 96.2% |  |  |  |  |  |  |  |  |  |  | 95.7% | 103% | 85% | 80.3% | 96.6% | 95.8% | 99.2% | 98.4% | 88.3% | 94.7% | > 10 µM | > 10 µM
15 | CN(C)CCN1C(=O)c2cccc3cc(N)cc(c23)C1=O [amonafide] | 1.7 | 3.3 | 1.4 | 1 | 5.2 |  | 2.48 µM | 101% | 92.7% | 95% | 100% | 64.6% | 97.8% | 93.3% | 95.9% | 94.1% | 54.8% | 94.8% | 96.2% | 99.3% | 104% | 65.1% | 99.9% | 96.1% | 97.9% | 108% | 69.7% | 92.9% | 108% | 113% | 93.6% | 23.9% |  | 
